Test results reported in article PMC8837603, “Lapcin, a potent dual topoisomerase I/II inhibitor discovered by soil metagenome guided total chemical synthesis” (Nature Communications, 2022).

Legend:
Human Topoisomerase I [1] = biological target: T1, Human Topoisomerase I (Homo sapiens, UniProt P11387); experiment: Human Topoisomerase I DNA relaxation assay; format: biochemical
T1 construct: purchased Inspiralis, UK
T1 sequence (P11387 1-765): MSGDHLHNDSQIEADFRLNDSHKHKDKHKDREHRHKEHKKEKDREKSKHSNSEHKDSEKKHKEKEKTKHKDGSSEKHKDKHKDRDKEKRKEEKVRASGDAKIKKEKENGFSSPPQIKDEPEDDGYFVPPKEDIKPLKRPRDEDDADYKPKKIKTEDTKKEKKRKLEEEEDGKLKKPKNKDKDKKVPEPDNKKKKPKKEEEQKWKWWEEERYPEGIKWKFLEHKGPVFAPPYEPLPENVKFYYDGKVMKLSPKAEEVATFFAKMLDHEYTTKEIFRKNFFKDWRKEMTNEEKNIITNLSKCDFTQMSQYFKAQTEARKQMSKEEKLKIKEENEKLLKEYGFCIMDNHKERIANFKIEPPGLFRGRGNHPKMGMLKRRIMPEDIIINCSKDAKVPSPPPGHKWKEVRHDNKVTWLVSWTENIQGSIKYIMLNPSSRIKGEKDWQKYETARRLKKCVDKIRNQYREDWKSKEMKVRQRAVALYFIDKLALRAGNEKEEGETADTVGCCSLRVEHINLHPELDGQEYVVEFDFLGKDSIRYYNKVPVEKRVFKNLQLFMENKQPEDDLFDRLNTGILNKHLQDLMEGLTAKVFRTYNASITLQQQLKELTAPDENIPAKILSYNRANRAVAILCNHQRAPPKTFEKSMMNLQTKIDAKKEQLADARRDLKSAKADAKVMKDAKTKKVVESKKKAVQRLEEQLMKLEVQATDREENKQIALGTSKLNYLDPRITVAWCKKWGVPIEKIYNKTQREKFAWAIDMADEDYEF
Protocol: All values were normalized to the negative control wells. […] All experiments were performed in triplicate (n = 3).

Human Topo II = biological target: T2, Human Topo II (Homo sapiens, UniProt P11388); experiment: Human Topoisomerase II DNA decatenation assay; format: biochemical
T2 construct: purchased TopoGen, USA
T2 sequence (P11388 whole entry): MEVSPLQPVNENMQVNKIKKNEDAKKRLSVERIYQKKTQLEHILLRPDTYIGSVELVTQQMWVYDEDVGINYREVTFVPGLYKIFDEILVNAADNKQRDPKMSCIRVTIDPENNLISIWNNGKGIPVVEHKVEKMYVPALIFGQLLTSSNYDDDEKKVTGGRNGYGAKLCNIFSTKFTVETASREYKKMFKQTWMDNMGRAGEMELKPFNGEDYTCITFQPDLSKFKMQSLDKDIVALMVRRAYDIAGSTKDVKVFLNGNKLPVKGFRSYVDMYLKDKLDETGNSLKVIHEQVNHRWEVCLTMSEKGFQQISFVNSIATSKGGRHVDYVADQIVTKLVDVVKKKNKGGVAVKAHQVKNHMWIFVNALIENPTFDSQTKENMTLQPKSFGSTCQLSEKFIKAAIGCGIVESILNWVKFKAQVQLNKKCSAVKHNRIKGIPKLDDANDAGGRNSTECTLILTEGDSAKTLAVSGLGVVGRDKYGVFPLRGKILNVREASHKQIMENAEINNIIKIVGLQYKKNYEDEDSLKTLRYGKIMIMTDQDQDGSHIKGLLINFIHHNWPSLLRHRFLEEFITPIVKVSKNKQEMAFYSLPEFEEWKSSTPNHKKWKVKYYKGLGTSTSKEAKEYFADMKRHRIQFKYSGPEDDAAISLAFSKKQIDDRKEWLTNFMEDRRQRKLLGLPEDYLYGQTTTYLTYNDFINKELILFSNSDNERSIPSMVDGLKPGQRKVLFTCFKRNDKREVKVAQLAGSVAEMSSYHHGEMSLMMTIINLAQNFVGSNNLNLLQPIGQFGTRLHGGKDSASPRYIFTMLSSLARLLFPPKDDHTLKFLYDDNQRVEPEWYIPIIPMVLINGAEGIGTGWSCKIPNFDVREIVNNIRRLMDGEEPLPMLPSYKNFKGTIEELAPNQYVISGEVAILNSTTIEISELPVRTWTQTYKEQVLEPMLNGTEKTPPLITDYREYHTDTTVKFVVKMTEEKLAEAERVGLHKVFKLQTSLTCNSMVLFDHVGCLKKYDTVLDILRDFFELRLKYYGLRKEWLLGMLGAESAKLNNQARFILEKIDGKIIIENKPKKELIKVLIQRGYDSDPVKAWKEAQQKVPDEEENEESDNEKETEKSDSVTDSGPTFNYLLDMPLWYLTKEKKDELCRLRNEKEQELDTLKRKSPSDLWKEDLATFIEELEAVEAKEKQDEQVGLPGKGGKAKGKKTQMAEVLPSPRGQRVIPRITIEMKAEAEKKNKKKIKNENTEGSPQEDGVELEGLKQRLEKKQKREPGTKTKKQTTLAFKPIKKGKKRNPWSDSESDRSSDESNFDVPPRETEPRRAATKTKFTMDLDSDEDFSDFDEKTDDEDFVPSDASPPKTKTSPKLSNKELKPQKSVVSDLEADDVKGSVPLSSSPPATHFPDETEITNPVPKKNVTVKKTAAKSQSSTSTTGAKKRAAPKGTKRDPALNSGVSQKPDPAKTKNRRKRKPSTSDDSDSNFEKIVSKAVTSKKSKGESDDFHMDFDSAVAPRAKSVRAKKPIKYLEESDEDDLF
Protocol: The decatenation assay was conducted using a Human Topo II decatenation kit (TopoGen, USA). […] Assays were performed according to the manufacturer’s protocol. Briefly, on ice, 19 µL of master mixture was prepared by adding 4 µL of freshly prepared 5 x assay buffer (0.5 M Tris-HCl pH8.0, 1.50 M NaCl, 100 mM MgCl2, 5 mM Dithiothreitol, 300 µg/mL BSA, 20 mM ATP), 1 µL of 200 ng/µL kDNA and 5 µL of serial diluted assay compounds in 200 µL reaction tubes. 1 µL of fresh diluted topoisomerase II (1U) was then added to each reaction tube. The total reaction volume was adjusted to 20 µL with H2O. These reactions were incubated at 37 °C for 30 min and stopped by addition of 4 µL of 5 x Stop Buffer (TopoGen, USA). Samples were loaded directly onto a 1% (w/v) agarose gel containing 0.5 µg/ml ethidium bromide and separated at 140 v for 1 hour in 0.5% TBE buffer. The intensity of released (decatenated) circular rings was quantified using Analytik Jena image software. All values were normalized to the negative control wells. The intensity of decatenated band was used in the determination of IC50 of tested compounds and the curve was drawn in Prism 9 (9.0.0). All experiments were performed in triplicate (n = 3).

E. coli gyrase = biological target: T3, E. coli gyrase (Escherichia coli, UniProt P0AES4+P0AES6); experiment: DNA gyrase supercoiling assay; format: biochemical
T3 construct: purchased TopoGen, USA
T3 sequence (P0AES4 whole entry, one chain of several): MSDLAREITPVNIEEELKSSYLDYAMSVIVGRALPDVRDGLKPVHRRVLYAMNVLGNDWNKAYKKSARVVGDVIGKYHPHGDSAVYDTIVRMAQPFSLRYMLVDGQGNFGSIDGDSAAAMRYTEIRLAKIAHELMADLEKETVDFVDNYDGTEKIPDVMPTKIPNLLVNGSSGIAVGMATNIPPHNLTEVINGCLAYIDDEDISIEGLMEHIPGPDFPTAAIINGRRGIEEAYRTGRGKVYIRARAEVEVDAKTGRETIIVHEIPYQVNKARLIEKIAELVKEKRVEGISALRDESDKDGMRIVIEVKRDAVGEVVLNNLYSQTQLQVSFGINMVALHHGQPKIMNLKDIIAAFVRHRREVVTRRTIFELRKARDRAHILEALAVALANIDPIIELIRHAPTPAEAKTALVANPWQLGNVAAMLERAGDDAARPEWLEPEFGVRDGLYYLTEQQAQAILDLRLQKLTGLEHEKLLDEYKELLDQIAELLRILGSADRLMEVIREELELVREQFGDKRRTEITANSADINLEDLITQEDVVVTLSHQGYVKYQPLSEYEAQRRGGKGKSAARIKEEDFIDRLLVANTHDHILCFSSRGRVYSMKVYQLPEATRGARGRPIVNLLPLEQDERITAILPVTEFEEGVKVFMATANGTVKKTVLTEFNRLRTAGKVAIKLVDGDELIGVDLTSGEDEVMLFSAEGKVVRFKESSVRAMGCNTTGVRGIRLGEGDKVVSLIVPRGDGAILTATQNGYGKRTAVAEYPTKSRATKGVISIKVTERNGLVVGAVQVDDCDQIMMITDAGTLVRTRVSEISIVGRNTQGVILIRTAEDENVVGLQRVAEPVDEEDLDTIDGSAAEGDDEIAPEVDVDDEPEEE
Protocol: The DNA gyrase supercoiling assay was conducted with an E. coli gyrase supercoiling kit (TopoGen, USA) in this assay. Ciprofloxacin (Sigma, USA) was used as the positive control. Assay was performed according to the manufacture’s protocol. […] The final volume of the reaction was adjusted to 19 µL with H2O. Finally, 1 µL of fresh diluted E. coli gyrase (1U) was added into the reaction mixture and incubated at 37 °C for 60 min. The reaction was terminated by addition of 2 µL of 10% SDS and 2 µL of 50 µg/mL proteinase K followed by a 30 min at 37 °C. The reaction was then extracted with 20 µL of chloroform/isoamyl alcohol (v:v, 24:1). The aqueous material loaded a on 1% (w/v) agarose gel and separated at 140 v for 1 hour in 0.5% TBE buffer. The gel was visualized using ethidium bromide staining. The intensity of SC plasmid bands was quantified using Analytik Jena image software. The intensity of SC bands was used in the determination of IC50 of tested compounds and the curve were drawn in Prism 9 (9.0.0). The assay was performed in triplicate (n = 3).

Human Topoisomerase I [2] = biological target: T1, Human Topoisomerase I; experiment: Topoisomerase I DNA cleavage assay; format: biochemical; details: supercoil pBR322, 30 min, 37 °C; nick DNA; two independent times
Protocol: (§1) Topoisomerase I/II cleavage assay: A commercial Human topoisomerase cleavage assay kit (Inspiralis, UK) was used in this study with a slight modification. Camptothecin (Sigma, USA) and Etoposide (Sigma, USA) were used as the positive control for topoisomerase I cleavage assay and topoisomerase II cleavage assay, respectively. The assay was performed according to the manufacture’s protocol. Briefly, 29 µL of the master mixture was prepared by adding 3 µL of 10 x assay buffer, 1 µL of 1 µg/µL supercoil pBR322, 1 µL of 30 mM ATP (only used in topoisomerase II cleavage assay), 1.5 µL serial diluted compounds (dissolved in DMSO) and H2O. Finally, 1 µL of 10 U/µL human topoisomerase I/II alpha was added to the reaction mixture. The reaction was incubated for 30 minutes at 37℃. After incubation, 3 µL of 2% (w/v) SDS and 1.5 µL of 10 mg/mL proteinase K was added. The reaction was mixed briefly and incubated for another 30 minutes at 37 ℃. The reaction was stopped by added 10 µL of H2O, 40 µL of STEB stop buffer and 40 µL of Chloroform/isoamyl alcohol (v:v, 24:1). The mixture was vortexed vigorously for 10 secs and centrifuged for 2 minutes. 20 µL of aqueous phase was loaded onto 1% (w/v) agarose gel and separated at 80 V for 2 hours in 0.5% TBE buffer. […]

[3] = tested on: human topoisomerase II alpha; experiment: Topoisomerase II DNA cleavage assay; format: biochemical; details: supercoil pBR322, ATP, 30 min, 37 °C; linear DNA; two independent times
Protocol: as §1

[4] = tested on: diverse microbial pathogens; experiment: Antimicrobial/antifungal susceptibility, whole panel; format: cell-based; details: at the highest concentration tested
Protocol: Lapcin was tested for antimicrobial activity against the bacteria and fungi shown in Supplementary Table 4. […] Ciprofloxacin (Sigma, USA) and Nystatin (Sigma, USA) were used as positive control for bacteria and fungi, respectively. Lapcin was dissolved in sterile DMSO to make a 3.2 mg/mL working solution. Lapcin was diluted across 96-well plates using a 2-fold serial dilution method to give a concentration range of 64 to 0.06 µg/mL in 50 µL of LB broth. A single colony of each test organism was grown in either 5 mL LB (bacteria) or YPD (fungi) medium overnight at 37 °C or 30 °C, respectively. Saturated overnight cultures were diluted 5,000-fold, and then 50 µL of dilute cells were transferred into each well of the assay plates. Finally, each well contains a total volume of 100 µL.

## CCCCCCCCCCCC(O)CC(=O)N[C@@H](C)C(=O)N[C@@H](CO)C(=O)N[C@@H](C)C(=O)Nc1ccc(-c2nc(-c3nc(C(=O)N[C@@H](CC(N)=O)C(=O)Nc4ccc(C(=O)Nc5ccc(C(=O)Nc6ccc(C(=O)O)cc6)c(O)c5OC(C)C)cc4)cs3)cs2)cc1 (stereo partly drawn) [Lapcin, 4-(4-(4-((2S)-4-amino-2-(2'-(4-((2S)-2-((2S)-3-hydroxy-2-((2S)-2-(3-hydroxytetradecanamido)propanamido)propanamido)propanamido)phenyl)-[2,4'-bithiazole]-4-carboxamido)-4-oxobutanamido)benzamido)-2-hydroxy-3-isopropoxybenzamido)benzoic acid]
Human Topoisomerase I [1]
  fold more potent than camptothecin, topoisomerase I: 14 times
Human Topoisomerase I [1]; supercoiled pBR322, 30 min, 37 °C, gel, ethidium bromide, n = 3
  IC50: 2.17 µM
Human Topo II
  fold more potent than etoposide, topoisomerase II: ~15 times
Human Topo II; kDNA, 1 U enzyme, 30 min, 37 °C, gel, ethidium bromide, n = 3
  IC50: 7.53 µM
E. coli gyrase
  IC50: > 20.5 µM
Human Topoisomerase I [2]
  accumulation of cleavage product, Topo I: did not observe the accumulation of a cleavage product
[3]
  accumulation of cleavage product, Topo II: did not observe the accumulation of a cleavage product
[4]
  antimicrobial or antifungal activity: no antimicrobial or antifungal activity
